Test results reported in patent publication US6610523B1, “Cytokine-, stress-, and oncoprotein-activated human protein kinase kinases” (University of Massachusetts, priority 1995, dated 2003).

B1: GAL4-ATF2 (Ala^69.71): GAL4-ATF2 fusion protein with Thr69 and Thr71 replaced with Ala (protein)
chain: MKLLSSIEQACDICRLKKLKCSKEKPKCAKCLKNNWECRYSPKTKRSPLTRAHLTEVESRLERLEQLFLLIFPREDLDMILKMDSLQDIKALLTGLFVQDNVNKDAVTDRLASVETDMPLTLRQHRISATSSSEESSNKGQRQLTVSMKFKLHVNSARQYKDLWNMSDDKPFLCTAPGCGQRFTNEDHLAVHKHKHEMTLKFGPARNDSVIVADQAPAPTRFLKNCEEVGLFNELASPFENEFKKASEDDIKKMPLDLSPLATPIIRSKIEEPSVVETTHQDSPLPHPESTTSDEKEVPLAQTAQPTSAIVRPASLQVPNVLLTSSDSSVIIQQAVPSPTSSTVITQAPSSNRPIVPVPGPFPLLLHLPNGQTMPVAIPASITSSNVHVPAAVPLVRPVTMVPSVPGIPGPSSPQPVQSEAKMRLKAALTQQHPPVTNGDTVKGHGSGLVRTQSEESRPQSLQQPATSTTETPASPAHTTPQTQSTSGRRRRAANEDPDEKRRKFLERNRAAASRCRQKRKVWVQSLEKKAEDLSSLNGQLQSEVTLLRNEVAQLKQLLLAHKDCPVTAMQKKSGYHTADKDDSSEDISVPSSPHTEAIQHSSVSTSNGVSSTSKAEAVATSVLTQMADQSTEPALSQIVMAPSSQSQPSGS
B2: GAL4-ATF2 (wild type): fusion protein consisting of ATF2 and the GAL4 DNA binding domain, wild-type Thr69,71 (protein)
chain: MKLLSSIEQACDICRLKKLKCSKEKPKCAKCLKNNWECRYSPKTKRSPLTRAHLTEVESRLERLEQLFLLIFPREDLDMILKMDSLQDIKALLTGLFVQDNVNKDAVTDRLASVETDMPLTLRQHRISATSSSEESSNKGQRQLTVSMKFKLHVNSARQYKDLWNMSDDKPFLCTAPGCGQRFTNEDHLAVHKHKHEMTLKFGPARNDSVIVADQTPTPTRFLKNCEEVGLFNELASPFENEFKKASEDDIKKMPLDLSPLATPIIRSKIEEPSVVETTHQDSPLPHPESTTSDEKEVPLAQTAQPTSAIVRPASLQVPNVLLTSSDSSVIIQQAVPSPTSSTVITQAPSSNRPIVPVPGPFPLLLHLPNGQTMPVAIPASITSSNVHVPAAVPLVRPVTMVPSVPGIPGPSSPQPVQSEAKMRLKAALTQQHPPVTNGDTVKGHGSGLVRTQSEESRPQSLQQPATSTTETPASPAHTTPQTQSTSGRRRRAANEDPDEKRRKFLERNRAAASRCRQKRKVWVQSLEKKAEDLSSLNGQLQSEVTLLRNEVAQLKQLLLAHKDCPVTAMQKKSGYHTADKDDSSEDISVPSSPHTEAIQHSSVSTSNGVSSTSKAEAVATSVLTQMADQSTEPALSQIVMAPSSQSQPSGS

Columns and labels:
Type in all cases: cell-based
JNK1 [1] = assay: Immunecomplex protein kinase assay of JNK1 from CHO cells that express human CD14, ATF2 as substrate
Procedure: (§1) The effect of phorbol ester, EGF, UV radiation, osmotic stress, IL-1, tumor necrosis factor (TNF), and LPS on p38 MAP kinase and JNK1 activity were measured in immunecomplex protein kinase assays using ATP [γ-^32P] and ATF2 as substrates. TNFα and IL-1α were from Genzyme Corp. Lipolysaccharide (LPS) was isolated from lyophilized Salmonella minesota Re595 bacteria as described (Mathison et a. (1988) J. Clin. Invest. 81:1925). Phorbol myristate acetate was from Sigma. EGF was purified from mouse salivary glands (Davis (1988) J. Biol. Chem. 263:9462). Kinase assays were performed using immunoprecipitates of p38 and JNK. The immunocomplexes were washed twice with kinase buffer (described above), and the assays initiated by the addition of 1 μg of ATF2 and 50 μM [γ-^32P]ATP (10 Ci/mmol) in a final volume of 25 μl. The reactions were terminated after 30 minutes at 30° C. by addition of Laemmli sample buffer. The phosphorylation of ATF2 was examined after SDS-PAGE by autoradiography, and the rate of ATF2 phosphorylation quantitated by PhosphorImager analysis.
(§2) The effect of LPS on the activity of p38 was examined using CHO cells that express human CD14.

p38 MAP kinase [2] = assay: Immunecomplex protein kinase assay of p38 MAP kinase from CHO cells that express human CD14, ATF2 as substrate
Procedure: as §1, §2

JNK1 [3] = assay: Immunecomplex protein kinase assay of JNK1 from treated HeLa cells, ATF2 as substrate; conditions: for JNK1 activation (in words): PMA 10 nM, EGF 10 nM, sorbitol 300 mM, interleukin-1 10 ng/ml, TNFα 10 ng/ml; for Relative Protein Kinase Activity JNK: control = 1.0
Procedure: as §1, with “analysis. […]” for “analysis.”

ATF2 = assay: Electrophoretic mobility of ATF2 by immuno-blot in JNK1-transfected CHO cells; conditions: IL-1α 10 ng/ml or fetal bovine serum 20%, 30 minutes at 37° C.
Procedure: CHO cells were maintained in Ham's F12 medium supplemented with 5% […] (Gibco-BRL). Cells were labeled and transfected with JNK1 as described above. CHO cells were treated with UV-C (40 J/m^2), IL-1α (10 ng/ml) (Genzyme), or fetal bovine serum (20%) (Gibco-BRL). The cells were incubated for 30 minutes at 37° C. prior to harvesting. The electrophoretic mobility of ATF2 after SDS-PAGE was examined by protein immuno-blot analysis.

p38 MAP kinase [4] = assay: Immunecomplex protein kinase assay of p38 MAP kinase from treated HeLa cells, ATF2 as substrate; conditions: for p38 activation (in words): PMA 10 nM, EGF 10 nM, sorbitol 300 mM, interleukin-1 10 ng/ml, TNFα 10 ng/ml; for Relative Protein Kinase Activity p38: control = 1.0
Procedure: as §1, with “analysis. […]” for “analysis.”

JNK1 [5] = assay: JNK1 immunecomplex kinase assay (c-Jun substrate) in CHO cells expressing epitope-tagged JNK1 after osmotic shock
Procedure: CHO cells were co-transfected with the plasmid pCMV-Flag-Jnk1 and pRSV-Neo (Dérijard et al. (1994) supra) . A stable cell line expressing epitope-tagged Jnk1 (Flag; Immunex Corp.) was isolated by selection with Geneticin (Gibco-BRL). The cells were incubated with 0, 100, 150, 300, 600, or 1000 mM sorbitol for 1 hour at 37° C. The cells were collected in lysis buffer (20 mM Tris, pH 7.4, 1% TRITON® X-100, 2 mM EDTA, 137 mM NaCl, 25 mM β-glycerophosphate, 1 mM orthovanadate, 2 mM pyrophosphate, 10% glycerol, 1 mM phenylmethylsulfonyl fluoride, 10 μg/ml leupeptin) and a soluble extract was obtained by centrifugation at 100,000 g for 30 minutes at […]. The epitope-tagged JNK1 was isolated by immunoprecipitation with the monoclonal antibody M2 (Immunex Corp.). The immunoprecipitates were washed extensively with lysis buffer. Immunecomplex kinase assays were done in 25 μl of 25 mM Hepes, pH 7.4, 25 mM MgCl2, 25 mM β-glycerophosphate, 2 mM dithiothreitol, 100 AM orthovanadate, and 50 AM ATP [γ-^32P] (10 Ci/mmole) with 2.5 μg of bacterially expressed c-Jun (residues 1-79) fused to glutathione-S-transferase (GST) as a substrate. The phosphorylation of c-Jun was examined after SDS-PAGE by autoradiography and PhosphorImager (Molecular Dynamics Inc.) analysis.
The time course of JNK1 protein kinase activation was measured in cells incubated in medium supplemented with 300 mM sorbitol as described above. Increased JNK1 activity was observed within 5 minutes of exposure to sorbitol, with maximum activity occurring after 15-30 minutes.

p38 MAP kinase [6] = assay: p38 MAP kinase immunecomplex assay (ATF2 substrate) in transfected COS-1 cells; conditions: COS-1 cells transfected with epitope-tagged p38; 10 nM EGF
Procedure: COS-1 cells were transfected with epitope-tagged p38 MAP kinase, together with an empty expression vector or an expression vector encoding MEK1, MKK3, or MKK4α. Some of the cultures were exposed to UV radiation (40 J/m^2) or treated with 10 nM EGF. p38 MAP kinase was isolated by immunoprecipitation with M2 monoclonal antibody, and the protein kinase activity was measured in the immunecomplex with [γ-^32P]ATP and ATF2 as substrates. The product of the phosphorylation reaction was visualized after SDS-PAGE by autoradiography. […] MKK3 and MKK4 phosphorylation of ATF2 was similar to that seen with p38 MAP kinase isolated from UV-irradiated cells.

[7] = test system: reporter plasmid pG5E1bLuc (GAL4 sites, firefly luciferase gene); assay: GAL4-ATF2 fusion protein co-transfection assay with luciferase reporter plasmid pG5E1bLuc in CHO cells; conditions: luciferase and β-galactosidase mean activity ratio of three experiments
Procedure: A fusion protein consisting of ATF2 and the GAL4 DNA binding domain was expressed in CHO cells as described above. The activity of the GAL4-ATF2 fusion protein was measured in co-transfection assays with the reporter plasmid pG5E1bLuc (Seth et al. (1992) J. Biol. Chem. 267:24796, hereby specifically incorporated by reference). The reporter plasmid contains five GAL4 sites cloned upstream of a minimal promoter element and the firefly luciferase gene. Transfection efficiency was monitored with a control plasmid that expresses β-galactosidase (pCH110; Pharmacia-LKB Biotechnology). The luciferase and β-galactosidase activity detected in cell extracts was measured as the mean activity ratio of three experiments (Gupta et al. (1993) Proc. Natl. Acad. Sci. USA 90:3216, hereby specifically incorporated by reference).

[8] = CHO cells that express human CD14, 10 ng/ml, control = 1.0

| Molecule | JNK1 activation (in words) (JNK1 [3]) | Relative Protein Kinase Activity JNK (JNK1 [3]) | p38 activation (in words) (p38 MAP kinase [4]) | Relative Protein Kinase Activity p38 (p38 MAP kinase [4]) | also measured |
| --- | --- | --- | --- | --- | --- |
| Lipopolysaccharide | – | – | – | – | Relative Protein Kinase Activity JNK (JNK1 [1]; [8]): 3.6; JNK1 activation (in words) (JNK1 [1]; CHO cells, 10 ng/ml LPS): only slightly activated; Relative Protein Kinase Activity p38 (p38 MAP kinase [2]; [8]): 3.7; p38 activation (in words) (p38 MAP kinase [2]; CHO cells, 10 ng/ml LPS): only slightly activated |
| Interleukin-1: IL-1α from Genzyme Corp., pro-inflammatory cytokine | strongly activated | 8.9 | strongly activated | 6.2 | shift in ATF2 electrophoretic mobility (in words) (ATF2): A shift in ATF2 electrophoretic mobility was observed |
| Tumor Necrosis Factor | strongly activated | 19.3 | strongly activated | 10.3 | – |
| CCCCCCCCCCCCCC(=O)O[C@@H]1[C@@H](C)[C@@]2(O)[C@@H](C=C(CO)C[C@]3(O)C(=O)C(C)=C[C@@H]23)[C@@H]2C(C)(C)[C@]12OC(C)=O [Phorbol Ester, Phorbol myristate acetate] | very weakly activated | 2.3 | very weakly activated | 2.9 | – |
| OC[C@@H](O)[C@@H](O)[C@H](O)[C@@H](O)CO [sorbitol] | strongly activated | 18.1 | strongly activated | 4.2 | time of maximum JNK1 activity (JNK1 [5]; 300 mM sorbitol): 15 to 30 min; time to increased JNK1 activity (JNK1 [5]; 300 mM sorbitol): ≤ 5 min; JNK1 activation (in words) (JNK1 [5]; 100, 150, 300, 600 or 1000 mM sorbitol, 1 hour at 37° C.): JNK1 activation was observed at all concentrations |
| Epidermal Growth Factor: EGF purified from mouse salivary glands | only weakly activated | 1.9 | only weakly activated | 2.1 | ATF2 phosphorylation by p38 MAP kinase isolated from treated cells (in words) (p38 MAP kinase [6]): not phosphorylated |
| B1 | – | – | – | – | LUCIFERASE ACTIVITY [7]: 29,000 Light Units/OD |
| B2 | – | – | – | – | LUCIFERASE ACTIVITY [7]: 320,000 Light Units/OD |
